Measured values from patent US9630916B2, “Organocatalysts of oxidative protein folding” (Wisconsin Alumni Research Foundation, priority 2014, dated 2017).
Where “and” joins values, the source holds several entries; their conditions need not be identical. Identical values can stand only once. Like-named read-outs stand apart in the source and are kept apart here. One block for each molecule: values may come before it.

Key:
[1] = Determination of thiol pKa values (A238 vs pH); type: physicochemical; conditions: potassium phosphate buffers of varied pH, absorbance at 238 nm, 0.10 M potassium phosphate buffers
Protocol: (§1) Dithiol 2 was synthesized from diethylenetriamine in a few high-yielding steps (see: The Examples). Thiol pKa values were measured by monitored the thiols A238 am as a function of pH. […] These values are slightly less than those of BMC (Table 1), presumably due to the introduction of an additional electronegative nitrogen atom. To determine the reduction potential of the oxidized form of the dithiol, equimolar amounts of dithiol 2 and oxidized β-mercaptoethanol were equilibrated and the amount of each reduced and oxidized species was quantitated with analytical HPLC. […] Finally, to probe the effect of increasing hydrophobicity on catalyzing the formation of native disulfide bonds in proteins, dithiols 3-8 were synthesized.
The thiol pKa values for 2 and 7 were determined by closely following a procedure reported previously that exploits the elevated absorbance of the deprotonated thiolate at 238 nm. […] [9, 55]
In eq 1, CT is the total thiol concentration, εSH^SH is the extinction coefficient of the doubly protonated form of 2 or 7, εSH^S− is the extinction coefficient of the singly protonated form of 2 or 7, and εS−^S− is the extinction coefficient of the doubly deprotonated form of 2 or 7.

[2] = Determination of disulfide E°′ (equilibration with oxidized β-mercaptoethanol, analytical HPLC, Nernst equation); type: physicochemical; conditions: equilibrium with βME^ox, mean of three measurements
Protocol: as §1
The reduction potentials of BMC, 2, and 7 were determined as described previously. Briefly, an equilibrium was established between reduced BMC (or 2, 5, or 7) and βME^OX, and analyzed with analytical HPLC. The equilibrium concentrations were determined by integration of the peaks corresponding to βME and βME^ox. From these concentrations, the Keq for the reaction was determined and the reduction potential of BMC (or 2 or 7) was then calculated using the Nernst equation and EβME^OX^∘′=−0.260 V. The values reported are the mean (±SE) of three separate measurements for each compound

sRNase A = molecular target: T1, sRNase A (Bos taurus, UniProt P61823); assay: Assay for disulfide-bond isomerization activity: unscrambling of sRNase A to give native RNase A; type: biochemical, bovine; conditions: for Folding yield (%): native RNase A from sRNase A, 1 mM catalyst, 30° C., 50 mM Tris-HCl pH 7.6, GSH 1.0 mM, GSSG 0.2 mM, after 5 h
T1 construct: purchased Sigma-Aldrich
T1 sequence (P61823 27-150): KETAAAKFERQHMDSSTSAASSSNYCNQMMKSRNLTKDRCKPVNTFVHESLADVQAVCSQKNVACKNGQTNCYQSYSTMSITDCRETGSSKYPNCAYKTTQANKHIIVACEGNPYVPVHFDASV
Protocol: FIGS. 4A and 4B are graphs illustrating catalysis of disulfide-bond isomerization by PDI and PDI mimics 1-7. (4A) Is a graph of the time-course for the unscrambling of sRNase A to give native RNase A. All reactions were performed at 30° C. in 50 mM Tris-HCl buffer, pH 7.6, containing GSH (1.0 mM), GSSG (0.2 mM), and PDI or dithiol 1-7 (1.0 mM). (4B) Is a graph of yield of native RNase A achieved by PDI mimics 2-7 after 5 h as a function of the calculated log P values listed in Table 1.
Enzymatic catalysis provides an extremely sensitive measure of native protein structure. RNase A contains eight cysteine residues, which could form 105 (=7×5×3×1) distinct fully oxidized species, only one of which gives rises to enzymatic activity (FIG. 3). Accordingly, the ability of this panel of compounds to catalyze the isomerization of “scrambled” RNase A (sRNase A) was tested. “Scrambled” RNase A is a random mixture of oxidized species, compared to its native state. The isomerization reaction was monitored by measuring the gain of catalytic activity.
sRNase was prepared as described previously, and validated by its having low ribonucleolytic activity and few free thiols according to Ellman's assay. Bovine liver PDI was from Sigma-Aldrich (product #P3818). The activation of sRNase A in the presence of refolding catalysts was determined as described previously. Refolding reactions were performed at 30° C. in 50 mM Tris-HCl buffer, pH 7.6, containing GSH (1.0 mM), GSSG (0.2 mM), and catalyst (1.0 mM). Organocatalysts were delivered from 100-fold concentrated stock solutions in DMSO. Reactions were initiated by the addition of sRNase A to a final concentration of 5 μg/mL. Reaction progress was monitored by quantifying the cleavage of the substrate 6-FAM-dArUdAdA-6-TAMRA at 493/515 nm, as described previously. Assays were performed in triplicate at ambient temperature in a black polystyrene 96-well plate, in 200 μL of 0.10 M MES-NaOH buffer, pH 6.0, containing NaCl (0.10 M). The resulting fluorescence data were fitted to the equation kcat/KM=(ΔI/Δt)/(If−I0)[E], in which ΔI/Δt is the initial reaction velocity, I0 is the fluorescence intensity before addition of any ribonuclease, If is the fluorescence intensity after complete substrate hydrolysis, and [E] is the total ribonuclease concentration. Reaction progress was monitored every hour until the increase in activity leveled off (˜5 h). In FIG. 4A, data were fitted to eq 2. [active RNase A]=[sRNase A]t=0(1−e^[catalyst]tk^obs) (2)

[3] = cited from earlier work
[4] = PDI active-site disulfide; literature value [21, 22]; cited from earlier work
[5] = higher of two thiol pKa values, read-out: thiol pKa (second value)
[6] = lower of two thiol pKa values, read-out: thiol pKa (first value)

pKa [1, 5]: 9.3 ± 0.3
pKa [1, 6]: 8.1 ± 0.3
Disulfide E°′ [2]: −0.203 V
Folding yield (%) (sRNase A): 57 ± 1%
Molecule: CCCCCC(=O)N(CCNC(=O)CS)CCNC(=O)CS [Dithiol 5]

pKa [1, 5]: 9.4 ± 0.2
pKa [1, 6]: 8.1 ± 0.2
Disulfide E°′ [2]: −0.206 V
Folding yield (%) (sRNase A): 66 ± 2%
increase of the yield of folded RNase A versus the uncatalyzed reaction (sRNase A; relative to uncatalyzed reaction (45 ± 2 %)): 47%
Molecule: CCc1ccc(C(=O)N(CCNC(=O)CS)CCNC(=O)CS)cc1 [Dithiol 7]

Folding yield (%) (sRNase A): 60 ± 2%
Molecule: O=C(CS)NCCN(CCNC(=O)CS)C(=O)c1ccccc1 [Dithiol 6]

Folding yield (%) (sRNase A): 87 ± 2%
B1: PDI: enzyme protein disulfide isomerase (EC 5.3.4.1); bovine liver PDI from Sigma-Aldrich used in the assay (protein, UniProt P05307 21-510, looked up)
Protein disulfide-isomerase: APDEEDHVLVLHKGNFDEALAAHKYLLVEFYAPWCGHCKALAPEYAKAAGKLKAEGSEIRLAKVDATEESDLAQQYGVRGYPTIKFFKNGDTASPKEYTAGREADDIVNWLKKRTGPAASTLSDGAAAEALVESSEVAVIGFFKDMESDSAKQFFLAAEVIDDIPFGITSNSDVFSKYQLDKDGVVLFKKFDEGRNNFEGEVTKEKLLDFIKHNQLPLVIEFTEQTAPKIFGGEIKTHILLFLPKSVSDYEGKLSNFKKAAESFKGKILFIFIDSDHTDNQRILEFFGLKKEECPAVRLITLEEEMTKYKPESDELTAEKITEFCHRFLEGKIKPHLMSQELPDDWDKQPVKVLVGKNFEEVAFDEKKNVFVEFYAPWCGHCKQLAPIWDKLGETYKDHENIVIAKMDSTANEVEAVKVHSFPTLKFFPASADRTVIDYNGERTLDGFKKFLESGGQDGAGDDDDLEDLEEAEEPDLEEDDDQKAVKDEL
pKa ([3]; N-terminal cysteine in the active site of PDI, literature value): 6.7
Disulfide E°′ [4]: −0.18 V and −0.180 V

The remaining lines, values behind:

Molecule: O=C(CS)NCCNCCNC(=O)CS [Dithiol 2]
pKa [1, 5]: 9.2 ± 0.1
pKa [1, 6]: 8 ± 0.2
Disulfide E°′ ([2]; listed as 2): −0.192 V
Disulfide E°′ ([2]; listed as dithiol 2): −0.192±0.003 V
Folding yield (%) (sRNase A): 50 ± 2%

Molecule: CCCC(=O)N(CCNC(=O)CS)CCNC(=O)CS [Dithiol 4]
Folding yield (%) (sRNase A): 54 ± 4%

Molecule: CC(=O)N(CCNC(=O)CS)CCNC(=O)CS [Dithiol 3]
Folding yield (%) (sRNase A): 45 ± 2%

Molecule: O=C(CS)N[C@@H]1CCCC[C@H]1NC(=O)CS (racemic) [Dithiol 1, (±)-trans-1,2-bis(mercaptoacetamido)cyclohexane, reference compound]
thiol pKa (first value) ([3]; values from ref. [30]): 8.3
thiol pKa (second value) ([3]; values from ref. [30]): 9.9
Disulfide E°′ [2]: −0.232 V
Folding yield (%) (sRNase A): 42 ± 2%
